{"source": "ChEMBL document CHEMBL1201862", "about": "“PubChem BioAssay data set” (2004)", "experiment_in_all_cases": "growth of human tumour cells (NCI), 48 h", "key": {"786-0": {"system": "786-0"}, "A498": {"system": "A498"}, "A549": {"system": "A549"}, "ACHN": {"system": "ACHN"}, "BT-549": {"system": "BT-549"}, "CAKI-1": {"system": "CAKI-1"}, "CCRF-CEM": {"system": "CCRF-CEM"}, "COLO 205": {"system": "COLO 205"}, "DU-145": {"system": "DU-145"}, "HCC 2998": {"system": "HCC 2998"}, "HCT-116": {"system": "HCT-116"}, "HCT-15": {"system": "HCT-15"}, "HL-60": {"system": "HL-60"}, "HOP-62": {"system": "HOP-62"}, "HOP-92": {"system": "HOP-92"}, "HT-29": {"system": "HT-29"}, "Hs-578T": {"system": "Hs-578T"}, "IGROV-1": {"system": "IGROV-1"}, "K562": {"system": "K562"}, "LOX IMVI": {"system": "LOX IMVI"}, "M14": {"system": "M14"}, "MCF7": {"system": "MCF7"}, "MDA-MB-231": {"system": "MDA-MB-231"}, "MDA-MB-435": {"system": "MDA-MB-435"}, "MDA-N": {"system": "MDA-N"}, "Malme-3M": {"system": "Malme-3M"}, "NCI-H226": {"system": "NCI-H226"}, "NCI-H23": {"system": "NCI-H23"}, "NCI-H460": {"system": "NCI-H460"}, "NCI-H522": {"system": "NCI-H522"}, "NCI/ADR-RES": {"system": "NCI/ADR-RES"}, "OVCAR-3": {"system": "OVCAR-3"}, "OVCAR-4": {"system": "OVCAR-4"}, "OVCAR-5": {"system": "OVCAR-5"}, "OVCAR-8": {"system": "OVCAR-8"}, "PC-3": {"system": "PC-3"}, "RXF 393": {"system": "RXF 393"}, "SF-268": {"system": "SF-268"}, "SF-295": {"system": "SF-295"}, "SF-539": {"system": "SF-539"}, "SK-MEL-28": {"system": "SK-MEL-28"}, "SK-MEL-2": {"system": "SK-MEL-2"}, "SK-MEL-5": {"system": "SK-MEL-5"}, "SK-OV-3": {"system": "SK-OV-3"}, "SN12C": {"system": "SN12C"}, "SNB-19": {"system": "SNB-19"}, "SNB-75": {"system": "SNB-75"}, "SW-620": {"system": "SW-620"}, "TK-10": {"system": "TK-10"}, "U-251": {"system": "U-251"}, "UACC-257": {"system": "UACC-257"}, "UACC-62": {"system": "UACC-62"}, "UO-31": {"system": "UO-31"}}, "note": "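Exposure lasted 48 hours, with cells grown in 96-well plates and compounds tested at five concentrations. At the GI50, growth is halved.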 Calls of active or inactive are those of the source. Cut-off read from the data, not from the text of the source: active = GI50 up to about 1.1 µM and inactive = higher."}
{"smiles": "Cc1nc2ccc(F)cc2c2c1CCN2c1ccc(Cl)cc1", "values": [{"measurement": "GI50", "setting": "786-0", "result": "7.66 µM (inactive)"}, {"measurement": "GI50", "setting": "A498", "result": "20.9 µM (inactive)"}, {"measurement": "GI50", "setting": "A549", "result": "17.2 µM (inactive)"}, {"measurement": "GI50", "setting": "ACHN", "result": "13.7 µM (inactive)"}, {"measurement": "GI50", "setting": "BT-549", "result": "19.5 µM (inactive)"}, {"measurement": "GI50", "setting": "CAKI-1", "result": "13.9 µM (inactive)"}, {"measurement": "GI50", "setting": "CCRF-CEM", "result": "5.82 µM (inactive)"}, {"measurement": "GI50", "setting": "COLO 205", "result": "6.71 µM (inactive)"}, {"measurement": "GI50", "setting": "DU-145", "result": "29.4 µM (inactive)"}, {"measurement": "GI50", "setting": "HCC 2998", "result": "13.7 µM (inactive)"}, {"measurement": "GI50", "setting": "HCT-116", "result": "4.52 µM (inactive)"}, {"measurement": "GI50", "setting": "HCT-15", "result": 13.1, "unit": "µM"}, {"measurement": "GI50", "setting": "HL-60", "result": "2.01 µM (inactive)"}, {"measurement": "GI50", "setting": "HOP-62", "result": "13.1 µM (inactive)"}, {"measurement": "GI50", "setting": "HOP-92", "result": "2.69 µM (inactive)"}, {"measurement": "GI50", "setting": "HT-29", "result": "3.61 µM (inactive)"}, {"measurement": "GI50", "setting": "Hs-578T", "result": "27.6 µM (inactive)"}, {"measurement": "GI50", "setting": "IGROV-1", "result": "7.73 µM (inactive)"}, {"measurement": "GI50", "setting": "K562", "result": "2.26 µM (inactive)"}, {"measurement": "GI50", "setting": "LOX IMVI", "result": "12.5 µM (inactive)"}, {"measurement": "GI50", "setting": "M14", "result": "8.85 µM (inactive)"}, {"measurement": "GI50", "setting": "MCF7", "result": "11.6 µM (inactive)"}, {"measurement": "GI50", "setting": "MDA-MB-231", "result": "4.04 µM (inactive)"}, {"measurement": "GI50", "setting": "MDA-MB-435", "result": "6.64 µM (inactive)"}, {"measurement": "GI50", "setting": "MDA-N", "result": "4.25 µM (inactive)"}, {"measurement": "GI50", "setting": "Malme-3M", "result": "10.7 µM (inactive)"}, {"measurement": "GI50", "setting": "NCI-H226", "result": "9.38 µM (inactive)"}, {"measurement": "GI50", "setting": "NCI-H23", "result": "5.15 µM (inactive)"}, {"measurement": "GI50", "setting": "NCI-H460", "result": "7.38 µM (inactive)"}, {"measurement": "GI50", "setting": "NCI-H522", "result": "6.78 µM (inactive)"}, {"measurement": "GI50", "setting": "NCI/ADR-RES", "result": "4.88 µM (inactive)"}, {"measurement": "GI50", "setting": "OVCAR-3", "result": "7.96 µM (inactive)"}, {"measurement": "GI50", "setting": "OVCAR-4", "result": "13.4 µM (inactive)"}, {"measurement": "GI50", "setting": "OVCAR-5", "result": "33.9 µM (inactive)"}, {"measurement": "GI50", "setting": "OVCAR-8", "result": "9.71 µM (inactive)"}, {"measurement": "GI50", "setting": "PC-3", "result": "3.85 µM (inactive)"}, {"measurement": "GI50", "setting": "RXF 393", "result": "18 µM (inactive)"}, {"measurement": "GI50", "setting": "SF-268", "result": "30.8 µM (inactive)"}, {"measurement": "GI50", "setting": "SF-295", "result": "4.33 µM (inactive)"}, {"measurement": "GI50", "setting": "SF-539", "result": "10.5 µM (inactive)"}, {"measurement": "GI50", "setting": "SK-MEL-28", "result": "12.2 µM (inactive)"}, {"measurement": "GI50", "setting": "SK-MEL-2", "result": "18.6 µM (inactive)"}, {"measurement": "GI50", "setting": "SK-MEL-5", "result": "3.56 µM (inactive)"}, {"measurement": "GI50", "setting": "SK-OV-3", "result": "29 µM (inactive)"}, {"measurement": "GI50", "setting": "SN12C", "result": "11.8 µM (inactive)"}, {"measurement": "GI50", "setting": "SNB-19", "result": "36.6 µM (inactive)"}, {"measurement": "GI50", "setting": "SNB-75", "result": "39.6 µM (inactive)"}, {"measurement": "GI50", "setting": "SW-620", "result": "11.3 µM (inactive)"}, {"measurement": "GI50", "setting": "TK-10", "result": "9.4 µM (inactive)"}, {"measurement": "GI50", "setting": "U-251", "result": "9.1 µM (inactive)"}, {"measurement": "GI50", "setting": "UACC-257", "result": "3.51 µM (inactive)"}, {"measurement": "GI50", "setting": "UACC-62", "result": "10.9 µM (inactive)"}, {"measurement": "GI50", "setting": "UO-31", "result": "5.45 µM (inactive)"}]}
